Experimental data from patent US20260042755A1, “GPR6 INVERSE AGONISTS” (MapLight Therapeutics, Inc., priority 2022, published 2026).
pIC50: −log10 of the molar value.

Legend:
GPR6 = molecular target: T1, GPR6 (Homo sapiens, UniProt P46095); assay: GPR6 antagonist functional cAMP assay (LANCE Ultra cAMP TR-FRET, CHO cells stably expressing GPR6); format: cell-based; conditions: CHO cells stably expressing GPR6, cAMP assay (Example 24)
T1 construct: expressed in transfected cells; host or cells: CHO cells
In short: (§1)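 Read-out was TR-FRET cAMP signal at 665 nm after 1 h at room temperature, following 45 min compound exposure at 37 °C. Assay buffer contained 0.1% BSA and 150 μM Ro 20-1724. Antagonist IC50s were fitted with a 4-parameter logistic against DMSO and reference controls.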

GPR3 = molecular target: T2, GPR3 (Homo sapiens, UniProt P46089); assay: GPR3 antagonist functional cAMP assay (LANCE Ultra cAMP TR-FRET, CHO cells stably expressing GPR3); format: cell-based; conditions: CHO cells stably expressing GPR3, cAMP assay (Example 24)
T2 construct: expressed in transfected cells; host or cells: CHO cells
In short: as §1

T2 sequence (P46089 whole entry, species assumed): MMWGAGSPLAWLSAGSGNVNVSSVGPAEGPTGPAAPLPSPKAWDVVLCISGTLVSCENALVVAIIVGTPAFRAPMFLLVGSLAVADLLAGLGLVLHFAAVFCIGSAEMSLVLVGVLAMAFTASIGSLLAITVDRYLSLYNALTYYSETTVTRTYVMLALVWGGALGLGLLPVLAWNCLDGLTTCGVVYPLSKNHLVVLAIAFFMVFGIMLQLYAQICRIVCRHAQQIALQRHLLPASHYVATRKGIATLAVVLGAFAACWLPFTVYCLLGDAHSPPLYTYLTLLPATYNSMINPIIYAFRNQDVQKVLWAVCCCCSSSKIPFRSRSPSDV
T1 sequence (P46095 whole entry): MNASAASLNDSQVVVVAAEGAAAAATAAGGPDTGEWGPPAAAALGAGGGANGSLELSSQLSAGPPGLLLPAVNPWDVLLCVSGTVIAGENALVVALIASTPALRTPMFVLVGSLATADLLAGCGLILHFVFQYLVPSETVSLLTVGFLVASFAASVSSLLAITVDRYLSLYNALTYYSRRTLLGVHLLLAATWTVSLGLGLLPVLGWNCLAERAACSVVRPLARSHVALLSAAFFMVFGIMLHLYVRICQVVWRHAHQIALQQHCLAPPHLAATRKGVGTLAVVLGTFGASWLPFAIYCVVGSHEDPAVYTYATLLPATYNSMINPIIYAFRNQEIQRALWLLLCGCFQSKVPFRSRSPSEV

| Compound | pIC50 (GPR6) | pIC50 (GPR3) |
| --- | --- | --- |
| CC(O)c1cc2nc(N3CCC(Oc4ccc(F)cc4F)CC3)c(-c3cnn(C)c3)nc2cn1 (stereo not drawn) [Compound 467, 1-{2-[4-(2,4-difluorophenoxy)piperidin-1-yl]-3-(1-methyl-1H-pyrazol-4-yl)pyrido[3,4-b]pyrazin-7-yl}ethan-1-ol] | 4.52 to 6.00 | 4.52 to 6.00 |
| Cn1cc(-c2nc3cnc(CCO)cc3nc2N2CCC(Oc3ccc(F)cc3F)CC2)cn1 [Compound 468, 2-{2-[4-(2,4-difluorophenoxy)piperidin-1-yl]-3-(1-methyl-1H-pyrazol-4-yl)pyrido[3,4-b]pyrazin-7-yl}ethan-1-ol] | 6.00 to 7.00 | 4.52 to 6.00 |
| CC(C)(O)C(O)c1cc2nc(N3CCC(Oc4ccc(F)cc4F)CC3)c(-c3cnn(C4CC4)c3)nc2cn1 (stereo not drawn) [Compound 469, 1-[3-(1-cyclopropyl-1H-pyrazol-4-yl)-2-[4-(2,4-difluorophenoxy)piperidin-1-yl]pyrido[3,4-b]pyrazin-7-yl]-2-methylpropane-1,2-diol] | 6.00 to 7.00 | 4.52 to 6.00 |
| Cn1cc(-c2nc3cnc(C(O)CO)cc3nc2N2CCC(Oc3ccc(F)cc3F)CC2)cn1 (stereo not drawn) [Compound 470, 1-(2-(4-(2,4-difluorophenoxy)piperidin-1-yl)-3-(1-methyl-1H-pyrazol-4-yl)pyrido[3,4-b]pyrazin-7-yl)ethane-1,2-diol] | 4.52 to 6.00 | 4.52 to 6.00 |
| CNc1nccc(-c2nc3c(nc2N2CCC(Oc4ccc(F)cc4F)CC2)CCN(C(C)=O)C3)n1 [Compound 473, 1-{2-[4-(2,4-difluorophenoxy)piperidin-1-yl]-3-[2-(methylamino)pyrimidin-4-yl]-5H,6H,7H,8H-pyrido[3,4-b]pyrazin-6-yl}ethan-1-one] | 6.00 to 7.00 | 4.52 to 6.00 |
| CCn1cc(-c2nc3c(nc2N2CCC(Oc4ccc(F)cc4F)CC2)CCN(C(=O)C2COCCO2)C3)cn1 (stereo not drawn) [Compound 474, 4-(2,4-difluorophenoxy)-1-[6-(1,4-dioxane-2-carbonyl)-3-(1-ethyl-1H-pyrazol-4-yl)-5H,6H,7H,8H-pyrido[3,4-b]pyrazin-2-yl]piperidine] | > 7.00 | 4.52 to 6.00 |
| CC(=O)N1CCc2nc(N3CCC(Oc4ccc(F)cc4F)CC3)c(-c3ccnc(N)n3)nc2C1 [Compound 475, 1-[3-(2-aminopyrimidin-4-yl)-2-[4-(2,4-difluorophenoxy)piperidin-1-yl]-5H,6H,7H,8H-pyrido[3,4-b]pyrazin-6-yl]ethan-1-one] | > 7.00 | 4.52 to 6.00 |
| CCn1cnc(-c2nc3c(nc2N2CCC(Oc4ccc(F)cc4F)CC2)CCN(C(C)=O)C3)c1 [Compound 476, 1-{2-[4-(2,4-difluorophenoxy)piperidin-1-yl]-3-(1-ethyl-1H-imidazol-4-yl)-5H,6H,7H,8H-pyrido[3,4-b]pyrazin-6-yl}ethan-1-one] | 4.52 to 6.00 | 4.52 to 6.00 |
| CCc1cccc(-c2nc3c(nc2N2CCC(Oc4ccc(F)cc4F)CC2)CCN(C(C)=O)C3)n1 [Compound 477, 1-{2-[4-(2,4-difluorophenoxy)piperidin-1-yl]-3-(6-ethylpyridin-2-yl)-5H,6H,7H,8H-pyrido[3,4-b]pyrazin-6-yl}ethan-1-one] | 4.52 to 6.00 | 4.52 to 6.00 |
| CCn1cc(-c2nc3c(nc2N2CCC(Oc4ccc(F)cc4F)CC2)CCN(S(N)(=O)=O)C3)cn1 [Compound 478, 2-(4-(2,4-difluorophenoxy)piperidin-1-yl)-3-(1-ethyl-1H-pyrazol-4-yl)-7,8-dihydropyrido[3,4-b]pyrazine-6(5H)-sulfonamide] | 6.00 to 7.00 | 4.52 to 6.00 |
| CCc1nccc(-c2nc3c(nc2N2CCC(Oc4ccc(F)cc4F)CC2)CCN(C(C)=O)C3)n1 [Compound 479, 1-{2-[4-(2,4-difluorophenoxy)piperidin-1-yl]-3-(2-ethylpyrimidin-4-yl)-5H,6H,7H,8H-pyrido[3,4-b]pyrazin-6-yl}ethan-1-one] | 4.52 to 6.00 | 4.52 to 6.00 |
| Cc1cncc2nc(-c3cnn(C)c3)c(N3CCC(Oc4ccc(F)cc4F)CC3)nc12 [Compound 480, 4-(2,4-difluorophenoxy)-1-[8-methyl-3-(1-methyl-1H-pyrazol-4-yl)pyrido[3,4-b]pyrazin-2-yl]piperidine] | 6.00 to 7.00 | 4.52 to 6.00 |
